Reference: patent publication US20220324925A1, “THERAPEUTIC PEPTIDES” (COHBAR, INC., priority 2019, published 2022)
Where no end group is shown, it is not given here. [ ]: non-standard residue; d: D form.

Tests used:
[1] = tested on: 3T3-L1 adipocytes; experiment: Free Fatty Acid Levels in cultured 3T3-L1 Adipocytes; details: for Free Fatty Acid Levels in 3T3-L1 Adipocytes Expressed as a Percent Isoproterenol Control, Percent of Control Value: test peptides 25 μM, 20-22 hours then isoproterenol (1 nM) 3 hours
Procedure: Following 12-15 days' differentiation, test peptides were added to a final concentration of 25 μM and incubated for 20-22 hours in Adipocyte Maintenance Medium. After 20-22 hours, isoproterenol (1 nM) was added to all wells except untreated controls and test peptides were replenished. Cells were incubated for a further 3 hours in Assay Buffer (Zen-Bio). Free fatty acid concentrations in the media were determined using a Free Fatty Acid Assay Kit (Zen-Bio) according to the manufacturer's instructions using a plate reader (540 nm). Absorbance values were corrected for untreated background and expressed relative to isoproterenol treated cells. Treatment with isoproterenol (1 nM) alone was used as the free fatty acid level stimulatory control. The relative standard deviation of the isoproterenol control was <10%.

[2] = tested on: MDA-MB-231 cells; experiment: Caspase 3/7 Activity (Caspase-Glo 3/7 Assay) in MDA-MB-231 cells; assay type: cell-based, human; details: test peptides 10 μM, 18 hours, relative to DMSO control
Procedure: The effect of the peptides on cell death/survival can be assessed using a caspase-3 assay. […] MDA-MB-231 cells were grown in DMEM Medium supplemented with 10% FBS. […] Luminescence for each sample well on the plate was measured by Envision 2104 Multilabel Reader (PerkinElmer, Santa Clara, Calif.). Activity was calculated relative to DMSO control.

[3] = tested on: MCF-7 cells; experiment: Cell viability, MTS Assay in MCF-7 Cells; details: test peptides 10 μM, 72 hours, relative to DMSO control
[4] = tested on: MDA-MB-231 cells; experiment: Cell viability, MTS Assay in MDA-MB-231 Cells; details: for MTS Assay in MDA-MB-231 Cells, Percent of Control Activity: 72 hours, relative to DMSO control, concentration not given

Row | Compound | Free Fatty Acid Levels in 3T3-L1 Adipocytes Expressed as a Percent Isoproterenol Control, Percent of Control Value [1] [%] | also measured
1 | 2 (PIVLELIPLKIFEIGPVFTL) [compound 2] | 92 | Caspase 3/7 Activity in MDA-MB-231 Cells, Percent of Control Activity [2]: 99%; MTS Assay in MCF-7 Cells, Percent of Control Activity [3]: 71%; MTS Assay in MDA-MB-231 Cells, Percent of Control Activity [4]: 78%
2 | 3 (PIVLELIPLKIFEIGPVFTL) [compound 3] | 68 | 
3 | 5 (P[dA]VLELIPLKIFEI[dA]PVFT) [compound 5] | 84 | 
4 | 7 (MSVWKVAVQTFNCYYYVLQALIN) [compound 7] | 128 | Caspase 3/7 Activity in MDA-MB-231 Cells, Percent of Control Activity [2]: 54%; MTS Assay in MCF-7 Cells, Percent of Control Activity [3]: 64%; MTS Assay in MDA-MB-231 Cells, Percent of Control Activity [4]: 83%
5 | 8 (SVWKVAVQTFNCYYYVLQALIN) [compound 8] | 117 | 
6 | 9 (SVWKVAVQTFNCYYYVLQAL; not fully specified (residues 6, 19)) [compound 9] | 134 | 
7 | 10 (SVWKV[dA]VQTFNCYYYVLQ[dA]L) [compound 10] | 46 | 
8 | 12 (MVSVLESALGRTRV) [compound 12] | 124 | Caspase 3/7 Activity in MDA-MB-231 Cells, Percent of Control Activity [2]: 44%; MTS Assay in MCF-7 Cells, Percent of Control Activity [3]: 32%; MTS Assay in MDA-MB-231 Cells, Percent of Control Activity [4]: 74%
9 | 13 (VSVLESALGRTRV; not fully specified (residue 7)) [compound 13] | 123 | 
10 | 14 (VSVLES[dA]LGRTRV) [compound 14] | 94 | 
11 | 15 (VSVLES[dA]LGRTR[dA]) [compound 15] | 126 | 
12 | 17 (MRCERYTSIPRSEMVNASIIFM) [compound 17] | 108 | Caspase 3/7 Activity in MDA-MB-231 Cells, Percent of Control Activity [2]: 51%; MTS Assay in MCF-7 Cells, Percent of Control Activity [3]: 54%; MTS Assay in MDA-MB-231 Cells, Percent of Control Activity [4]: 79%
13 | 18 (RCERYTSIPRSEMVNASIIFM) [compound 18] | 96 | 
14 | 19 (RCERYTSIPRSEMVN[dA]SIIF) [compound 19] | 78 | 
15 | 20 (R[dA]ERYTSIPRSEMVN[dA]SI[dA]F) [compound 20] | 96 | 
16 | CN[C@@H]1C[C@H]2O[C@@](C)([C@@H]1OC)n1c3ccccc3c3c4c(c5c6ccccc6n2c5c31)C(=O)NC4 [staurosporine, reference compound] |  | Cell viability, % of the DMSO control value ([4]; Staurosporine 10 uM, MDA-MB-231 cells, positive control): 3%
17 | insulin [reference compound] |  | Free fatty acid levels, % of the isoproterenol control value ([1]; insulin 100 nM, positive control): < 5%
